Results published in patent US11959122B2.

System: microbial flora in the target watershed
Assay: minimum inhibitory concentration (MIC) by EUCAST database and drug resistance prediction invalid concentration PNECr
Settings: PNECR=MIC/AF, AF 10
Source text: Minimum inhibitory concentration (MIC) of some antibiotics and drug resistance prediction invalid concentration (PNECr) of microbes

In order of falling PNECr:
1. O=C1CN(/N=C/c2ccc([N+](=O)[O-])o2)C(=O)N1 [Furantoin]  400
2. COC[C@H]1O[C@@H](OC2OC[C@@H]3O[C@]4(O[C@H]3[C@H]2OC(=O)C(C)C)O[C@H](C)[C@@](O)(C(C)=O)[C@@H]2OCO[C@H]24)[C@@H](OC)[C@@H](O)[C@@H]1O[C@@H]1O[C@H](C)[C@H](OC)[C@H](O[C@H]2C[C@@]3(C)OC4(C[C@@H](O)[C@H](O[C@H]5C[C@@H](O)[C@H](OC(=O)c6c(C)c(Cl)c(O)c(Cl)c6OC)[C@@H](C)O5)[C@@H](C)O4)O[C@@H]3[C@@H](C)O2)[C@H]1O (stereo partly shown) [Avilamycin]  100
3. CS(=O)(=O)c1ccc([C@@H](O)[C@@H](CO)NC(=O)C(Cl)Cl)cc1 [Thiamphenicol]  50
4. NCC[C@H](O)C(=O)N[C@@H]1C[C@H](N)[C@@H](O[C@H]2O[C@H](CN)[C@@H](O)[C@H](O)[C@H]2O)[C@H](O)[C@H]1O[C@H]1O[C@H](CO)[C@@H](O)[C@H](N)[C@H]1O [Amikacin]  25
5. CC1(C)S[C@@H]2[C@H](NC(=O)[C@H](C(=O)O)c3ccsc3)C(=O)N2[C@H]1C(=O)O [Ticarcillin]  25
6. CN(C)[C@@H]1C(O)=C(C(N)=O)C(=O)[C@@]2(O)C(O)=C3C(=O)c4c(O)cccc4[C@@](C)(O)[C@H]3[C@H](O)[C@@H]12 [Oxytetracycline]  12.5
7. CC1(C)S[C@@H]2[C@H](/N=C/N3CCCCCC3)C(=O)N2[C@H]1C(=O)O [Messilinan]  6.4
8. C[C@@H]1[C@H](O)[C@@H](C)/C=C/C=C/C=C/C=C/C=C/C=C/C=C/[C@H](O[C@@H]2O[C@H](C)[C@@H](O)[C@H](N)[C@@H]2O)C[C@@H]2O[C@](O)(C[C@@H](O)C[C@@H](O)[C@H](O)CC[C@@H](O)C[C@@H](O)CC(=O)O[C@H]1C)C[C@H](O)[C@H]2C(=O)O [Amphotericin B]  0.8
9. C[C@@H](O)[C@H]1C(=O)N2C(C(=O)O)=C(S[C@@H]3CN[C@H](CNS(N)(=O)=O)C3)[C@H](C)[C@H]12 [Doripenan]  0.2

System: microbial flora in the target watershed
Assay: not given
Settings: determined by EUCAST database; unit assumed; cited from earlier work

In order of falling Observed MIC:
1. O=C1CN(/N=C/c2ccc([N+](=O)[O-])o2)C(=O)N1 [Furantoin]  4000 µg/mL
2. COC[C@H]1O[C@@H](OC2OC[C@@H]3O[C@]4(O[C@H]3[C@H]2OC(=O)C(C)C)O[C@H](C)[C@@](O)(C(C)=O)[C@@H]2OCO[C@H]24)[C@@H](OC)[C@@H](O)[C@@H]1O[C@@H]1O[C@H](C)[C@H](OC)[C@H](O[C@H]2C[C@@]3(C)OC4(C[C@@H](O)[C@H](O[C@H]5C[C@@H](O)[C@H](OC(=O)c6c(C)c(Cl)c(O)c(Cl)c6OC)[C@@H](C)O5)[C@@H](C)O4)O[C@@H]3[C@@H](C)O2)[C@H]1O (stereo partly shown) [Avilamycin]  1000 µg/mL
3. CS(=O)(=O)c1ccc([C@@H](O)[C@@H](CO)NC(=O)C(Cl)Cl)cc1 [Thiamphenicol]  500 µg/mL
4. NCC[C@H](O)C(=O)N[C@@H]1C[C@H](N)[C@@H](O[C@H]2O[C@H](CN)[C@@H](O)[C@H](O)[C@H]2O)[C@H](O)[C@H]1O[C@H]1O[C@H](CO)[C@@H](O)[C@H](N)[C@H]1O [Amikacin]  250 µg/mL
5. CC1(C)S[C@@H]2[C@H](NC(=O)[C@H](C(=O)O)c3ccsc3)C(=O)N2[C@H]1C(=O)O [Ticarcillin]  250 µg/mL
6. CN(C)[C@@H]1C(O)=C(C(N)=O)C(=O)[C@@]2(O)C(O)=C3C(=O)c4c(O)cccc4[C@@](C)(O)[C@H]3[C@H](O)[C@@H]12 [Oxytetracycline]  125 µg/mL
7. Cc1onc(-c2ccccc2Cl)c1C(=O)N[C@@H]1C(=O)N2[C@@H]1SC(C)(C)[C@@H]2C(=O)O [Cloxacillin]  64 µg/mL
8. OC(Cn1cncn1)(Cn1cncn1)c1ccc(F)cc1F [Fluconazol]  64 µg/mL
9. CC1CCc2cc(F)cc3c(=O)c(C(=O)O)cn1c23 (stereo not shown) [Flumequine]  64 µg/mL
10. NNC(=O)c1ccncc1 [Isoniazide]  64 µg/mL
11. CC1(C)S[C@@H]2[C@H](/N=C/N3CCCCCC3)C(=O)N2[C@H]1C(=O)O [Messilinan]  64 µg/mL
12. C=C[C@]1(C)C[C@@H](OC(=O)CS[C@@H]2C[C@H]3CC[C@@H](C2)N3C)[C@]2(C)[C@H](C)CC[C@]3(CCC(=O)[C@H]32)[C@@H](C)[C@@H]1O [Retapamulin]  64 µg/mL
13. C[C@H]1[C@H](NC(=O)/C(=N\OC(C)(C)C(=O)O)c2csc(N)n2)C(=O)N1S(=O)(=O)O [Aztreonam]  32 µg/mL
14. N[C@@H](C(=O)N[C@@H]1C(=O)N2C(C(=O)O)=C(Cl)CS[C@H]12)c1ccccc1 [Cefaclor]  32 µg/mL
15. Cc1nnc(SCC2=C(C(=O)O)N3C(=O)[C@@H](NC(=O)Cn4cnnn4)[C@H]3SC2)s1 [Cefazolin]  32 µg/mL
16. NC1CCN(c2c(F)cc3c(=O)c(C(=O)O)cn(C4CC4)c3c2Cl)C1 (stereo not shown) [Clinafloxacin]  32 µg/mL
17. CCCCCCCCCC(=O)N[C@@H](Cc1c[nH]c2ccccc12)C(=O)N[C@H](CC(N)=O)C(=O)N[C@@H](CC(=O)O)C(=O)N[C@@H]1C(=O)NCC(=O)N[C@@H](CCCN)C(=O)N[C@@H](CC(=O)O)C(=O)N[C@H](C)C(=O)N[C@@H](CC(=O)O)C(=O)NCC(=O)N[C@H](CO)C(=O)N[C@@H]([C@H](C)CC(=O)O)C(=O)N[C@@H](CC(=O)c2ccccc2N)C(=O)O[C@@H]1C [Daptomycin]  32 µg/mL
18. C/C(=C\C(=O)OCCCCCCCCC(=O)O)C[C@@H]1OC[C@H](C[C@@H]2O[C@H]2[C@@H](C)[C@H](C)O)[C@@H](O)[C@H]1O [Mupirocin]  32 µg/mL
19. Cc1onc(-c2ccccc2)c1C(=O)N[C@@H]1C(=O)N2[C@@H]1SC(C)(C)[C@@H]2C(=O)O [Oxacillin]  32 µg/mL
20. Cc1ncc([N+](=O)[O-])n1CC(C)O (stereo not shown) [Secnidazole]  32 µg/mL
21. CC[C@H]1OC(=O)[C@H](C)[C@@H](O[C@H]2C[C@@](C)(OC)[C@@H](O)[C@H](C)O2)[C@H](C)[C@@H](O[C@@H]2O[C@H](C)C[C@H](N(C)C)[C@H]2O)[C@](C)(O)C[C@@H](C)CN(C)[C@H](C)[C@@H](O)[C@]1(C)O [Azithromycin]  16 µg/mL
22. CC(C)(O/N=C(\C(=O)N[C@@H]1C(=O)N2C(C(=O)[O-])=C(C[n+]3ccccc3)CS[C@H]12)c1csc(N)n1)C(=O)O [Ceftazidime]  16 µg/mL
23. CC[C@H]1OC(=O)[C@H](C)[C@@H](O[C@H]2C[C@@](C)(OC)[C@@H](O)[C@H](C)O2)[C@H](C)[C@@H](O[C@@H]2O[C@H](C)C[C@H](N(C)C)[C@H]2O)[C@](C)(O)C[C@@H](C)C(=O)[C@H](C)[C@@H](O)[C@]1(C)O [Erythromycin]  16 µg/mL
24. Cc1ncc([N+](=O)[O-])n1CCO [Metronidazole]  16 µg/mL
25. CCN[C@@H]1C[C@H](N)[C@@H](O[C@H]2OC(CN)=CC[C@H]2N)[C@H](O)[C@H]1O[C@H]1OC[C@](C)(O)[C@H](NC)[C@H]1O [Netilmicin]  16 µg/mL
26. CCn1cc(C(=O)O)c(=O)c2cc(F)c(N3CCNCC3)cc21 [Norfloxacin]  16 µg/mL
27. CC[C@H]1OC(=O)[C@H](C)C(=O)[C@H](C)[C@@H](O[C@@H]2O[C@H](C)C[C@H](N(C)C)[C@H]2O)[C@](C)(OC)C[C@@H](C)C(=O)[C@H](C)[C@H]2N(CCCCn3cnc(-c4cccnc4)c3)C(=O)O[C@]12C [Telithromycin]  16 µg/mL
28. CN(C)c1cc(NC(=O)CNC(C)(C)C)c(O)c2c1C[C@H]1C[C@H]3[C@H](N(C)C)C(O)=C(C(N)=O)C(=O)[C@@]3(O)C(O)=C1C2=O [Tigecycline]  16 µg/mL
29. NC[C@H]1O[C@H](O[C@H]2[C@H](O)[C@@H](O[C@H]3O[C@H](CO)[C@@H](O)[C@H](N)[C@H]3O)[C@H](N)C[C@@H]2N)[C@H](N)C[C@@H]1O [Tobramycin]  16 µg/mL
30. COc1cc(Cc2cnc(N)nc2N)cc(OC)c1OC [Trimethoprim]  16 µg/mL
31. C[C@@H]1[C@H](O)[C@@H](C)/C=C/C=C/C=C/C=C/C=C/C=C/C=C/[C@H](O[C@@H]2O[C@H](C)[C@@H](O)[C@H](N)[C@@H]2O)C[C@@H]2O[C@](O)(C[C@@H](O)C[C@@H](O)[C@H](O)CC[C@@H](O)C[C@@H](O)CC(=O)O[C@H]1C)C[C@H](O)[C@H]2C(=O)O [Amphotericin B]  8 µg/mL
32. CO/N=C(\C(=O)N[C@@H]1C(=O)N2C(C(=O)[O-])=C(C[N+]3(C)CCCC3)CS[C@H]12)c1csc(N)n1 [Cefepime]  8 µg/mL
33. Nc1nc(/C(=C/CC(=O)O)C(=O)N[C@@H]2C(=O)N3C(C(=O)O)=CCS[C@H]23)cs1 [Ceftibuten]  8 µg/mL
34. CO/N=C(\C(=O)N[C@@H]1C(=O)N2C(C(=O)O)=C(CSC(=O)c3ccco3)CS[C@H]12)c1csc(N)n1 [Ceftiofur]  8 µg/mL
35. CO/N=C(\C(=O)N[C@@H]1C(=O)N2C(C(=O)O)=C(COC(N)=O)CS[C@H]12)c1ccco1 [Cefuroxime]  8 µg/mL
36. CCN1CCN(c2cc3c(cc2F)c(=O)c(C(=O)O)cn3C2CC2)CC1 [Enrofloxacin]  8 µg/mL
37. C[C@@H](O)[C@H]1C(=O)N2C(C(=O)O)=C([C@H]3CCCO3)S[C@H]12 [Faropenem]  8 µg/mL
38. CCc1c(Cl)c(O)c(Cl)c(O)c1C(=O)O[C@H]1[C@H](O)[C@H](OC)[C@H](OC/C2=C\C=C\C[C@H](O)/C(C)=C/[C@H](CC)[C@@H](O[C@@H]3OC(C)(C)[C@@H](OC(=O)C(C)C)[C@H](O)[C@@H]3O)/C(C)=C/C(C)=C/C[C@@H]([C@@H](C)O)OC2=O)O[C@@H]1C [Fidaxomicin]  8 µg/mL
39. CC1(C)S[C@@H]2[C@H](NC(=O)[C@H](N)c3ccc(O)cc3)C(=O)N2[C@H]1C(=O)O [Amoxicillin]  4 µg/mL
40. CC1(C)S[C@@H]2[C@H](NC(=O)[C@H](N)c3ccccc3)C(=O)N2[C@H]1C(=O)O [Ampicillin]  4 µg/mL
41. CO/N=C(\C(=O)N[C@@H]1C(=O)N2C(C(=O)[O-])=C(C[n+]3cccc4c3CCC4)CS[C@H]12)c1csc(N)n1 [Cefpirome]  4 µg/mL
42. COc1c(N2CCNC(C)C2)c(F)cc2c(=O)c(C(=O)O)cn(C3CC3)c12 (stereo not shown) [Gatifloxacin]  4 µg/mL
43. CC(=O)N1CCN(c2ccc(OCC3COC(Cn4ccnc4)(c4ccc(Cl)cc4Cl)O3)cc2)CC1 (stereo not shown) [Ketoconazole]  4 µg/mL
44. CC1(C)S[C@@H]2[C@H](NC(=O)COc3ccccc3)C(=O)N2[C@H]1C(=O)O [Phenoxymethylpenicillin]  4 µg/mL
45. CCN1CCN(C(=O)N[C@@H](C(=O)N[C@@H]2C(=O)N3[C@@H]2SC(C)(C)[C@@H]3C(=O)O)c2ccccc2)C(=O)C1=O [Piperacillin]  4 µg/mL
46. CO/N=C(\C(=O)N[C@@H]1C(=O)N2C(C(=O)O)=C(COC(C)=O)CS[C@H]12)c1csc(N)n1 [Cefotaxime]  2 µg/mL
47. CO/N=C(\C(=O)N[C@@H]1C(=O)N2C(C(=O)O)=C(CSc3nc(=O)c(=O)[nH]n3C)CS[C@H]12)c1csc(N)n1 [Ceftriaxone]  2 µg/mL
48. O=C(O)c1cn(C2CC2)c2cc(N3CCNCC3)c(F)cc2c1=O [Ciprofloxacin]  2 µg/mL
49. CN1CCN(c2cc3c(cc2F)c(=O)c(C(=O)O)cn3-c2ccc(F)cc2)CC1 [Difloxacin]  2 µg/mL
50. C[C@@H](O)[C@H]1C(=O)N2C(C(=O)O)=C(S[C@@H]3CN[C@H](CNS(N)(=O)=O)C3)[C@H](C)[C@H]12 [Doripenan]  2 µg/mL
51. C[C@@H](O)[C@H]1C(=O)N2C(C(=O)O)=C(S[C@@H]3CN[C@H](C(=O)Nc4cccc(C(=O)O)c4)C3)[C@H](C)[C@H]12 [Ertapenem]  2 µg/mL
52. C[C@@H](O)[C@H]1C(=O)N2C(C(=O)O)=C(S[C@@H]3CN[C@H](C(=O)N(C)C)C3)[C@H](C)[C@H]12 [MeropeneM]  2 µg/mL
53. CC[C@H]1OC(=O)[C@H](C)[C@@H](O[C@H]2C[C@@](C)(OC)[C@@H](O)[C@H](C)O2)[C@H](C)[C@@H](O[C@@H]2O[C@H](C)C[C@H](N(C)C)[C@H]2O)[C@](C)(O)C[C@@H](C)/C(=N\OCOCCOC)[C@H](C)[C@@H](O)[C@]1(C)O [Roxithromycin]  2 µg/mL
54. CN[C@@H]1[C@H](O)[C@H](NC)[C@H]2O[C@@]3(O)C(=O)C[C@@H](C)O[C@H]3O[C@@H]2[C@H]1O [Spectinomycin]  2 µg/mL
55. C[C@@H](c1ncncc1F)[C@](O)(Cn1cncn1)c1ccc(F)cc1F [Voriconazole]  2 µg/mL
